pIC50: −log10 of the molar value. Values after ≈ are worked out from the molar mass of the structure shown. Read-outs that look alike come from different tables or passages of the source.

The subject of one assay is A. baumannii CDC-0036. Briefly: microbe, parasite or virus in culture. As to conditions: Acinetobacter baumannii, CDC0036, read-out: MIC, A. baumannii CDC-0036. The assay is classed as cell-based.
In the next assay the test system is P. aeruginosa CDC-0054. Briefly: microbe, parasite or virus in culture. The settings on record: Pseudomonas aeruginosa, CDC0054, read-out: Minimum inhibitory concentration, P. aeruginosa CDC-0054. The assay is classed as cell-based.
A further assay concerns N. gonorrhoeae WHO Q. Briefly: Liquid broth MIC in Fastidious broth. The settings on record: Neisseria gonorrhoeae.
Assay [1] addresses T1, PBP1a from Acinetobacter baumannii (ATCC 19606) (Acinetobacter baumannii, UniProt A0ABX6CK30).
T1 sequence (A0ABX6CK30 1-851): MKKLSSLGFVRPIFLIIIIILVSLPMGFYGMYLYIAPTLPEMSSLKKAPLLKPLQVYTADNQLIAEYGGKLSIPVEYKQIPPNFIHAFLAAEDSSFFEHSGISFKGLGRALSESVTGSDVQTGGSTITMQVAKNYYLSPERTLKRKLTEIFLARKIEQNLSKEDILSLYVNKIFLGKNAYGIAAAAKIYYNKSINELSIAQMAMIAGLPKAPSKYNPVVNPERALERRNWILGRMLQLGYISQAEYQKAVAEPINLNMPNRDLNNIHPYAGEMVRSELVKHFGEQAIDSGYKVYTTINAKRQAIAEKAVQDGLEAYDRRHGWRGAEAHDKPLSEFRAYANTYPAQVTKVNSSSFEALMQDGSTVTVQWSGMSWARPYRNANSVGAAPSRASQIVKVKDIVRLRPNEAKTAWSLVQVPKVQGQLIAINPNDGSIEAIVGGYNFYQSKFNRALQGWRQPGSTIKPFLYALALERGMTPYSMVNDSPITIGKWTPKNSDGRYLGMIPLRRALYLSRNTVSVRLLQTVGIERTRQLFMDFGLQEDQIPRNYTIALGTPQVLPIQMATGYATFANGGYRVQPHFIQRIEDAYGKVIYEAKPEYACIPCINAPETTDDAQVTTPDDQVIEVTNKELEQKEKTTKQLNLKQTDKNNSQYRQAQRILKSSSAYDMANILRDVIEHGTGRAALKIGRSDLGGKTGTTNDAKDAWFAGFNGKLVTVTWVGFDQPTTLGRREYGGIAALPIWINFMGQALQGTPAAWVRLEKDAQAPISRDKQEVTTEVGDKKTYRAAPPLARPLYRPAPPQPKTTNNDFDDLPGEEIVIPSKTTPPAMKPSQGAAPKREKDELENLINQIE
Briefly: Bocillin-FL fluorescence polarization competition binding, A. baumannii PBP1a. As to conditions: fluorescence polarization competition binding assay using Bocillin-FL; read-out: A. baumannii PBP1a Potency. A digest of the protocol:
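Purified PBPs pre-incubated with inhibitor (E. coli PBP3 1.5 μM, 30 min; P. aeruginosa PBP3 0.75 μM, A. baumannii PBP1a 1 μM and PBP3 0.2 μM, 15 min), then Bocillin-FL 0.1 μM (0.05 μM for PBP1a) added; FP read up to 60 min. EC50 = concentration halving bound Bocillin-FL.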
On the technique in general: In fluorescence polarisation assays a small probe gives low polarisation when free and higher when bound to something large.

A further assay concerns P. aeruginosa ATCC 35151. Briefly: microbe, parasite or virus in culture. The assay is classed as cell-based. As to conditions: Pseudomonas aeruginosa, ATCC35151, read-out: Minimum inhibitory concentration, P. aeruginosa ATCC 35151.
[2] abbreviates: read-out: Minimum Inhibitory Concentration (MIC), N. gonorrhoeae WHO Q.
[3] abbreviates: read-out: Minimum Inhibitory Concentration, WHO Q.

Turning to `O=C(NCCN1CCN(C(=O)NC(C(=O)N[C@H]2Cc3ccc(F)c(C(=O)O)c3OB2O)c2cc(F)c(O)c(O)c2Cl)C1=O)c1ccccc1` (stereo partly drawn) [Example 242, (3R)-3-(2-(3-(2-benzamidoethyl)-2-oxoimidazolidine-1-carboxamido)-2-(2-chloro-5-fluoro-3,4-dihydroxyphenyl)acetamido)-7-fluoro-2-hydroxy-3,4-dihydro-2H-benzo[e][1,2]oxaborinine-8-carboxylic acid], the MIC is 2 to 4 µg/mL (≈ 2.85 to 5.7 µM) in the assay with A. baumannii CDC-0036, 2 to 4 µg/mL (≈ 2.85 to 5.7 µM) in the assay on P. aeruginosa CDC-0054, over 64 µg/mL in the assay on N. gonorrhoeae WHO Q (setting [2]) and under 1 µg/mL in the assay on P. aeruginosa ATCC 35151. For the same compound, in assay [1], the pIC50 was under 3.60.

Consider `O=C(NCCN1CCN(C(=O)NC(C(=O)N[C@H]2Cc3ccc(F)c(C(=O)O)c3OB2O)c2cc(F)c(O)c(O)c2Cl)C1=O)c1ccc(O)cc1` (stereo partly drawn) [Example 243, (3R)-3-(2-(2-chloro-5-fluoro-3,4-dihydroxyphenyl)-2-(3-(2-(4-hydroxybenzamido)ethyl)-2-oxoimidazolidine-1-carboxamido)acetamido)-7-fluoro-2-hydroxy-3,4-dihydro-2H-benzo[e][1,2]oxaborinine-8-carboxylic acid], for which the MIC with A. baumannii CDC-0036 is under 1 µg/mL; in the assay with P. aeruginosa CDC-0054, 2 to 4 µg/mL (≈ 2.79 to 5.57 µM); with N. gonorrhoeae WHO Q (setting [2]) it was over 64 µg/mL; in the assay with P. aeruginosa ATCC 35151 it was under 1 µg/mL. Moreover, the pIC50 in assay [1] is under 3.60.

Consider `O=C(NCCN1CCN(C(=O)NC(C(=O)N[C@H]2Cc3ccc(F)c(C(=O)O)c3OB2O)c2cc(F)c(O)c(O)c2Cl)C1=O)c1cccc(O)c1` (stereo partly drawn) [Example 244, (3R)-3-(2-(2-chloro-5-fluoro-3,4-dihydroxyphenyl)-2-(3-(2-(3-hydroxybenzamido)ethyl)-2-oxoimidazolidine-1-carboxamido)acetamido)-7-fluoro-2-hydroxy-3,4-dihydro-2H-benzo[e][1,2]oxaborinine-8-carboxylic acid], for which the MIC with A. baumannii CDC-0036 is 2 to 4 µg/mL (≈ 2.79 to 5.57 µM); in the assay on P. aeruginosa CDC-0054, 2 to 4 µg/mL (≈ 2.79 to 5.57 µM); in the assay with N. gonorrhoeae WHO Q (setting [2]) it was over 64 µg/mL; with P. aeruginosa ATCC 35151, under 1 µg/mL. Further, in assay [1], the pIC50 is under 3.60.

As to `O=C(NCCN1CCN(C(=O)NC(C(=O)N[C@H]2Cc3ccc(F)c(C(=O)O)c3OB2O)c2cc(F)c(O)c(O)c2Cl)C1=O)c1cccnc1` (stereo partly drawn) [Example 246, (3R)-3-(2-(2-chloro-5-fluoro-3,4-dihydroxyphenyl)-2-(3-(2-(nicotinamido)ethyl)-2-oxoimidazolidine-1-carboxamido)acetamido)-7-fluoro-2-hydroxy-3,4-dihydro-2H-benzo[e][1,2]oxaborinine-8-carboxylic acid], the MIC with A. baumannii CDC-0036 is 2 to 4 µg/mL (≈ 2.85 to 5.69 µM); in the assay with P. aeruginosa CDC-0054 it was 2 to 4 µg/mL (≈ 2.85 to 5.69 µM); with N. gonorrhoeae WHO Q (setting [3]), over 64 µg/mL; in the assay with P. aeruginosa ATCC 35151 it was under 1 µg/mL. The pIC50 in assay [1] was under 3.60.

Turning to `O=C(O)c1c(F)ccc2c1OB(O)[C@@H](NC(=O)C(NC(=O)N1CCN(CCNC(=O)[C@@H]3CCCN3)C1=O)c1cc(F)c(O)c(O)c1Cl)C2` (stereo partly drawn) [Example 248, (3R)-3-(2-(2-chloro-5-fluoro-3,4-dihydroxyphenyl)-2-(2-oxo-3-(2-((S)-pyrrolidine-2-carboxamido)ethyl)imidazolidine-1-carboxamido)acetamido)-7-fluoro-2-hydroxy-3,4-dihydro-2H-benzo[e][1,2]oxaborinine-8-carboxylic acid], the MIC was 2 to 4 µg/mL (≈ 2.88 to 5.76 µM) in the assay on A. baumannii CDC-0036, 2 to 4 µg/mL (≈ 2.88 to 5.76 µM) in the assay on P. aeruginosa CDC-0054, 16 to 32 µg/mL (≈ 23 to 46.1 µM) in the assay on N. gonorrhoeae WHO Q (setting [3]) and under 1 µg/mL with P. aeruginosa ATCC 35151. In addition, the pIC50 in assay [1] is under 3.60.

For the compound `O=C(NCCCN1CCN(C(=O)N[C@H](C(=O)N[C@H]2Cc3ccc(F)c(C(=O)O)c3OB2O)c2cc(F)c(O)c(O)c2Cl)C1=O)c1ccccc1` [Example 252, (R)-3-((S)-2-(3-(3-benzamidopropyl)-2-oxoimidazolidine-1-carboxamido)-2-(2-chloro-5-fluoro-3,4-dihydroxyphenyl)acetamido)-7-fluoro-2-hydroxy-3,4-dihydro-2H-benzo[e][1,2]oxaborinine-8-carboxylic acid], the MIC is over 128 µg/mL in the assay on A. baumannii CDC-0036, over 128 µg/mL in the assay on P. aeruginosa CDC-0054, over 64 µg/mL in the assay with N. gonorrhoeae WHO Q (setting [3]) and 2 to 4 µg/mL (≈ 2.79 to 5.59 µM) with P. aeruginosa ATCC 35151. Also, in assay [1], the pIC50 was under 3.60.

Regarding `O=C(NCCCN1CCN(C(=O)N[C@@H](C(=O)N[C@H]2Cc3ccc(F)c(C(=O)O)c3OB2O)c2cc(F)c(O)c(O)c2Cl)C1=O)c1ccccc1` [Example 253, (R)-3-((R)-2-(3-(3-benzamidopropyl)-2-oxoimidazolidine-1-carboxamido)-2-(2-chloro-5-fluoro-3,4-dihydroxyphenyl)acetamido)-7-fluoro-2-hydroxy-3,4-dihydro-2H-benzo[e][1,2]oxaborinine-8-carboxylic acid], the MIC in the assay with A. baumannii CDC-0036 is under 1 µg/mL; in the assay with P. aeruginosa CDC-0054, 8 to 16 µg/mL (≈ 11.2 to 22.4 µM); in the assay on N. gonorrhoeae WHO Q (setting [3]), 16 to 32 µg/mL (≈ 22.4 to 44.7 µM); in the assay with P. aeruginosa ATCC 35151, under 1 µg/mL. Moreover, in assay [1], the pIC50 was under 3.60.

In the case of `O=C(NCCCN1CCN(C(=O)N[C@H](C(=O)N[C@H]2Cc3ccc(F)c(C(=O)O)c3OB2O)c2cc(F)c(O)c(O)c2Cl)C1=O)c1cccc(O)c1` [Example 254, (R)-3-((S)-2-(2-chloro-5-fluoro-3,4-dihydroxyphenyl)-2-(3-(3-(3-hydroxybenzamido)propyl)-2-oxoimidazolidine-1-carboxamido)acetamido)-7-fluoro-2-hydroxy-3,4-dihydro-2H-benzo[e][1,2]oxaborinine-8-carboxylic acid], the MIC is over 128 µg/mL with A. baumannii CDC-0036, over 128 µg/mL in the assay on P. aeruginosa CDC-0054, over 64 µg/mL in the assay with N. gonorrhoeae WHO Q (setting [3]) and under 1 µg/mL in the assay with P. aeruginosa ATCC 35151. Moreover, in assay [1], the pIC50 is under 3.60.

Take `O=C(NCCS(=O)(=O)N1CCN(C(=O)NC(C(=O)N[C@H]2Cc3ccc(F)c(C(=O)O)c3OB2O)c2cc(F)c(O)c(O)c2Cl)C1=O)c1ccccc1` (stereo partly drawn) [Example 260, (3R)-3-(2-(3-((2-benzamidoethyl)sulfonyl)-2-oxoimidazolidine-1-carboxamido)-2-(2-chloro-5-fluoro-3,4-dihydroxyphenyl)acetamido)-7-fluoro-2-hydroxy-3,4-dihydro-2H-benzo[e][1,2]oxaborinine-8-carboxylic acid]: the MIC in the assay with A. baumannii CDC-0036 is 2 to 4 µg/mL (≈ 2.61 to 5.22 µM); with P. aeruginosa CDC-0054, 2 to 4 µg/mL (≈ 2.61 to 5.22 µM); in the assay on N. gonorrhoeae WHO Q (setting [3]), 16 to 32 µg/mL (≈ 20.9 to 41.8 µM); with P. aeruginosa ATCC 35151 it was under 1 µg/mL. For the same compound, the pIC50 in assay [1] was under 3.60.

For the compound `O=C(NCCS(=O)(=O)N1CCN(C(=O)NC(C(=O)N[C@H]2Cc3ccc(F)c(C(=O)O)c3OB2O)c2cc(F)c(O)c(O)c2Cl)C1=O)c1cccc(O)c1` (stereo partly drawn) [Example 261, (3R)-3-(2-(2-chloro-5-fluoro-3,4-dihydroxyphenyl)-2-(3-((2-(3-hydroxybenzamido)ethyl)sulfonyl)-2-oxoimidazolidine-1-carboxamido)acetamido)-7-fluoro-2-hydroxy-3,4-dihydro-2H-benzo[e][1,2]oxaborinine-8-carboxylic acid], the MIC was 2 to 4 µg/mL (≈ 2.56 to 5.12 µM) in the assay with A. baumannii CDC-0036, 2 to 4 µg/mL (≈ 2.56 to 5.12 µM) in the assay on P. aeruginosa CDC-0054, 16 to 32 µg/mL (≈ 20.5 to 40.9 µM) in the assay on N. gonorrhoeae WHO Q (setting [3]) and under 1 µg/mL in the assay with P. aeruginosa ATCC 35151. In addition, the pIC50 in assay [1] is under 3.60.

`O=C(NCCS(=O)(=O)N1CCN(C(=O)N[C@H](C(=O)N[C@H]2Cc3ccc(F)c(C(=O)O)c3OB2O)c2cc(F)c(O)c(O)c2Cl)C1=O)c1nccs1` [Example 263, (R)-3-((S)-2-(2-chloro-5-fluoro-3,4-dihydroxyphenyl)-2-(2-oxo-3-((2-(thiazole-2-carboxamido)ethyl)sulfonyl)imidazolidine-1-carboxamido)acetamido)-7-fluoro-2-hydroxy-3,4-dihydro-2H-benzo[e][1,2]oxaborinine-8-carboxylic acid]: the MIC with A. baumannii CDC-0036 is 32 to 64 µg/mL (≈ 41.4 to 82.8 µM); in the assay with P. aeruginosa CDC-0054 it was 8 to 16 µg/mL (≈ 10.4 to 20.7 µM); with N. gonorrhoeae WHO Q (setting [3]) it was over 64 µg/mL; in the assay with P. aeruginosa ATCC 35151, 2 to 4 µg/mL (≈ 2.59 to 5.18 µM). Besides, the pIC50 in assay [1] was under 3.60.

The values are drawn from patent US20240270762A1, “PENICILLIN-BINDING PROTEIN INHIBITORS” (priority 2021, published 2024).
